According to patent US9187762B2, “Compositions and methods comprising sequences having hydroxyphenylpyruvate dioxygenase (HPPD) activity” (PIONEER HI-BRED INTERNATIONAL, INC., priority 2010, dated 2015):

B1: GE010883: Sorghum bicolor variant HPPD with maize motif substitutions, SEQ ID NO: 459 (protein)
chain: MPPTPTTAAATGAAVAAASAEQAAFRLVGHRNFVRVNPRSDRFHTLAFHHVELWCADAASAAGRFSFGLGAPLAARSDLSTGNTAHASLLLRSGALAFLFTAPYAHGADAATASLPSFSAAEARRFAADHGLAVRAVALRVADAEDAFRASVAAGARPAFEPVELGLGFRLAEVELYGDVVLRYVSYPDDADASFLPGFVGVTSPGAADYGLRRFDHIVGNVPELAPAAAYMAGFTGFHEFAEFTAEDVGTTESGLNSMALANNAENVLLPLNEPVHGTKRRSQIQTYLDHHGGPGVQHIALASDDVLRTLREMQARSAMGGFEFLPPPLSEYYDGVRRCAGDVLTEAQIKECQELGVMVDRDDQGVLLQIFTKPVGDRPTLFLEIIQRIGCMEKDEKGQEYQKGGCGGFGKGNFGQLFKSIEDYEKSLEAKQAAAAQGS
modifications: HPPD variant

Key:
soybean plants = assay: Herbicide spray tests of transgenic HPPD soy plants (T1/T2) with multiple HPPD-inhibitor herbicides, visual injury; type: in vivo; settings: for Soybean Response (% Injury): Elite Line Nontransgenic, foliar, V1 stage; for Soybean Response (% Injury), Null: T1 soybean PHP45921A D0223903 SEQ ID NO: 3, null segregants; for Soybean Response (% Injury), Positive: T1 soybean PHP45921A D0223903 SEQ ID NO: 3, positive segregants
Experimental: T1 plants were evaluated for zygosity. Homozygous single-locus transgenic plants and their corresponding null segregants were identified and T2 true breeding seed was obtained from each. Plants were grown to the V1 to V2 growth stage and then sprayed with the commercial formulation of mesotrione, tembotrione, topramezone, and isoxaflutole. All treatments were applied with nonionic surfactant and ammonium sulfate in a spray volume of 374 L/ha. Multiple rates of each herbicide were applied so a response range could be used to compare the relative tolerance of the different herbicides as well as the relative tolerance of homozygous nulls and positives for each event. The herbicide response for individual treated plants was evaluated by comparing to untreated plants of similar genetic background. Herbicide response ratings were eight days after treatment. Visual injury was on a scale of 0 to 100% injury (0=no effect to 100=dead plant).
T1 soybean plants expressing D0223903 (SEQ ID NO: 3) driven by a synthetic promoter (as described in U.S. Pat. No. 6,072,050) were evaluated with qPCR for the presence of the transgene and null and positive segregants selected. Plants were sprayed at the V1 growth stage with the commercial formulations of mesotrione, tembotrione, topramezone, and isoxaflutole. Two rates of each herbicide were applied foliarly with nonionic surfactant and ammonium sulfate in a spray volume of 374 L/ha. The herbicide response for individual plants was determined by comparing to untreated plants of similar genetic background. Visual injury was on a scale of 0 to 100% injury (0=no effect to 100=dead plant).

S. bicolor HPPD = assay: ON/OFF rate ratio insensitivity parameters of HPPD with maize motif substitutions; type: biochemical, Sorghum bicolor
Experimental: [formula] Higher KD (reduced affinity or increased insensitivity) can be attained with a numerically smaller ON rate, a larger OFF rate or both. […] The ratio of the reaction rate with inhibitor to that without inhibitor during the 70 to 90 second interval of the reaction was termed the “ON rate ratio”. […] Incubations with the same concentrations of enzyme but no mesotrione were done in parallel. After 1 hr at room temperature, 5 to 10 ul of the enzyme-inhibitor complex was dispensed into the wells of the assay plate. Reactions were started with the addition of 290 to 295 ul of 25 mM Hepes, pH 7, 2 mM ascorbate, 10 uM FeSO4, 100 uM HPP and 50 nM HGD. The reactions were monitored at 320 nm for 12 min. Reaction velocity accelerates as inhibitor is released from the enzyme until a steady state is reached, during which the reaction velocity is constant. The ratio of the steady state rate in mixtures containing mesotrione (or other herbicidal inhibitor) to the initial velocity of mixtures lacking inhibitor is termed the “OFF rate ratio”. Another parameter to record is the time span required for the reactions with inhibitor to reach the steady state. […] It is not certain that the steady state attained in the OFF rate reactions actually represents an equilibrium where OFF rates are now equal to ON rates. Because substrate and inhibitors bind in the same site, the high concentration of substrate present may competitively trap the inhibitor and prevent it from binding again. To be sure that improvement in ON rates is being taken into account, the ON and OFF rate ratios were multiplied together and the product is termed the “insensitivity parameter”.

Row | Molecule | Soybean Response (% Injury) (soybean plants; rate 26.25 g ai/ha) [%] | Soybean Response (% Injury), Null (soybean plants; rate 26.25 g ai/ha) [%] | Soybean Response (% Injury), Positive (soybean plants; rate 26.25 g ai/ha) [%] | Soybean Response (% Injury) (soybean plants; rate 105 g ai/ha) [%] | Soybean Response (% Injury) (soybean plants; rate 210 g ai/ha) [%] | Soybean Response (% Injury), Null (soybean plants; rate 105 g ai/ha) [%] | Soybean Response (% Injury), Null (soybean plants; rate 210 g ai/ha) [%] | Soybean Response (% Injury), Positive (soybean plants; rate 105 g ai/ha) [%] | Soybean Response (% Injury), Positive (soybean plants; rate 210 g ai/ha) [%] | further results
1 | CS(=O)(=O)c1cc(C(F)(F)F)ccc1C(=O)c1cnoc1C1CC1 [Isoxaflutole] | 72 | 78 | 5 |  |  |  |  |  |  | Soybean Response (% Injury) (soybean plants; rate 13.12 g ai/ha): 70%; Soybean Response (% Injury), Null (soybean plants; rate 13.12 g ai/ha): 80%; Soybean Response (% Injury), Positive (soybean plants; rate 13.12 g ai/ha): 15%
2 | CS(=O)(=O)c1ccc(C(=O)C2C(=O)CCCC2=O)c([N+](=O)[O-])c1 [Mesotrione] |  |  |  | 65 | 75 | 80 | 83 | 10 | 20 | 
3 | CS(=O)(=O)c1ccc(C(=O)C2C(=O)CCCC2=O)c(Cl)c1COCC(F)(F)F [Tembotrione] |  |  |  | 70 | 78 | 75 | 75 | 40 | 33 | 
4 | Cc1c(C(=O)c2cnn(C)c2O)ccc(S(C)(=O)=O)c1C1=NOCC1 [Topramezone] | 78 | 75 | 5 |  |  |  |  |  |  | Soybean Response (% Injury) (soybean plants; rate 52.5 g ai/ha): 78%; Soybean Response (% Injury), Null (soybean plants; rate 52.5 g ai/ha): 78%; Soybean Response (% Injury), Positive (soybean plants; rate 52.5 g ai/ha): 20%
5 | B1 |  |  |  |  |  |  |  |  |  | improvement of insensitivity vs native protein (S. bicolor HPPD; mesotrione): 6.13 fold; improvement of insensitivity vs native protein (S. bicolor HPPD; tembotrione): 7.71 fold
